Measurements published in US20260315464A1, “COMPOSITIONS, METHODS, AND SYSTEMS FOR MODULATING SPLICING OF MSH3” (REVIR THERAPEUTICS, INC., priority 2023, published 2026).

Test system: MSH3
Assay: QPCR assay for levels of MSH3 upon compound treatment in HEK293T or AD293 cells (fold-change of MSH3 transcript, EC50 of MSH3 downregulation; total MSH3 exons 13/14, exons 20/21; Table 8)
Type: cell-based
Conditions: for mrna remaining at 1 µM / mrna remaining at 10 µM: Homo sapiens, fold-change of the MSH3 transcript, normalized to GAPDH; for mrna remaining at 1 µM: 1 μM compound; for mrna remaining at 10 µM: 10 μM compound
Protocol: HEK293T or AD293 cells were treated with Compound 274 at 1 μM and […]. RNA, cDNA and qPCR was prepared using TaqMan Cells-to-CT Express kit (ThermoFisher Scientific). Taqman assays (ThermoFisher Scientific) were used for quantification of total MSH3 exons 13/14 (cat #4351372, ID #: Hs00988993_ml), total MSH3 exons 20/21 (cat #4351372, ID #: Hs00989000_ml), exon 13/PE14A (Fwd: 5′-[…]; Rev: 5′-[…]; Probe: 5′-[…]) and exon 20/PE21A (Fwd: 5′-[…]; Rev: 5′-[…]; Probe: 5′-[…]) mRNA expression. Taqman GAPDH (cat #4448489, ID #: Hs02758991_g1) was used as a reference for data normalization.

Row | SMILES | mrna remaining at 1 µM | mrna remaining at 10 µM | EC50 (EC50 of MSH3 downregulation, XtalPi)
1 | Cc1nn(C)cc1-c1cc2c(cn1)CN(c1cnc(N(C)[C@H]3C[C@]4(C)CC[C@](C)(C3)N4)nn1)C2=O [Compound 55, 6-(1,3-dimethyl-1H-pyrazol-4-yl)-2-(3-(((1R,3s,5S)-1,5-dimethyl-8-azabicyclo[3.2.1]octan-3-yl)(methyl)amino)-1,2,4-triazin-6-yl)-2,3-dihydro-1H-pyrrolo[3,4-c]pyridin-1-one] | 56% | 20% | –
2 | Cn1ncc(-c2cc3c(c(Cl)n2)CN(c2ccc(O[C@H]4C[C@]5(C)CC[C@](C)(C4)N5)nn2)C3=O)n1 [Compound 106, 4-chloro-2-(6-(((1R,3s,5S)-1,5-dimethyl-8-azabicyclo[3.2.1]octan-3-yl)oxy)pyridazin-3-yl)-6-(2-methyl-2H-1,2,3-triazol-4-yl)-2,3-dihydro-1H-pyrrolo[3,4-c]pyridin-1-one] | 121% | 130% | –
3 | Cc1nn(C)cc1-c1cc(F)c2c(c1)C(=O)N(c1cnc(N(C)[C@H]3C[C@]4(C)CC[C@](C)(C3)N4)nn1)C2 [Compound 291, 6-(1,3-dimethyl-1H-pyrazol-4-yl)-2-(3-(((1R,3s,5S)-1,5-dimethyl-8-azabicyclo[3.2.1]octan-3-yl)(methyl)amino)-1,2,4-triazin-6-yl)-4-fluoroisoindolin-1-one] | 93% | 81% | –
4 | Cc1nn(C)cc1-c1cnc2c(c1)C(=O)N(c1ccc(OC3CC(C)(C)NC(C)(C)C3)nn1)C2 [Compound 141, 3-(1,3-dimethyl-1H-pyrazol-4-yl)-6-(6-((2,2,6,6-tetramethylpiperidin-4-yl)oxy)pyridazin-3-yl)-6,7-dihydro-5H-pyrrolo[3,4-b]pyridin-5-one] | 67% | 6% | –
5 | Cn1ncc(-c2cnc3c(c2)C(=O)N(c2ccc(OC4CC(C)(C)NC5(CCC5)C4)nn2)C3)n1 (stereo not shown) [Compound 601, 6-(6-((6,6-dimethyl-5-azaspiro[3.5]nonan-8-yl)oxy)pyridazin-3-yl)-3-(2-methyl-2H-1,2,3-triazol-4-yl)-6,7-dihydro-5H-pyrrolo[3,4-b]pyridin-5-one] | 117% | 82% | –
6 | Cc1nn(C)cc1-c1cc(F)c2c(c1)C(=O)N(c1ccc(OC3CC(C)(C)NC(C)(C)C3)nn1)C2 [Compound 276, 6-(1,3-dimethyl-1H-pyrazol-4-yl)-4-fluoro-2-(6-((2,2,6,6-tetramethylpiperidin-4-yl)oxy)pyridazin-3-yl)isoindolin-1-one] | 103% | 38% | –
7 | CN(C)C1CN(c2ccc(N3Cc4c(F)cc(-c5nn(C)nc5Cl)cc4C3=O)nn2)C1 [Compound 647, 6-(5-chloro-2-methyl-2H-1,2,3-triazol-4-yl)-2-(6-(3-(dimethylamino)azetidin-1-yl)pyridazin-3-yl)-4-fluoroisoindolin-1-one] | 119% | 86% | –
8 | Cc1nn(C)cc1-c1cc(F)c2c(c1)C(=O)N(c1ccc(O[C@H]3CC(C)(C)NC(C)(C)[C@H]3F)nn1)C2 [Compound 280, 6-(1,3-dimethyl-1H-pyrazol-4-yl)-4-fluoro-2-(6-(((3R,4S)-3-fluoro-2,2,6,6-tetramethylpiperidin-4-yl)oxy)pyridazin-3-yl)isoindolin-1-one] | 99% | 66% | –
9 | Cn1nc(Cl)c(-c2cc(F)c3c(c2)C(=O)N(c2ccc(N4CC5CCC(C4)NC5)nn2)C3)n1 (stereo not shown) [Compound 645] | 87% | 104% | –
10 | Cc1nc(C)c(-c2cc(F)c3c(c2)C(=O)N(c2ccc(O[C@H]4C[C@]5(C)CC[C@](C)(C4)N5)nn2)C3)s1 [Compound 286, 2-(6-(((1R,3s,5S)-1,5-dimethyl-8-azabicyclo[3.2.1]octan-3-yl)oxy)pyridazin-3-yl)-6-(2,4-dimethylthiazol-5-yl)-4-fluoroisoindolin-1-one] | 117% | 59% | –
11 | Cc1nn(C)cc1-c1cc2c(cn1)CN(c1ccc(OC3CC(C)(C)NC(C)(C)C3)nn1)C2=O [Compound 76, 6-(1,3-dimethyl-1H-pyrazol-4-yl)-2-(6-((2,2,6,6-tetramethylpiperidin-4-yl)oxy)pyridazin-3-yl)-2,3-dihydro-1H-pyrrolo[3,4-c]pyridin-1-one] | 98% | 20% | –
12 | Cc1nc(C)c(-c2cc3c(cn2)CN(c2ccc(O[C@H]4C[C@]5(C)CC[C@](C)(C4)N5)nn2)C3=O)s1 [Compound 69, 2-(6-(((1R,3s,5S)-1,5-dimethyl-8-azabicyclo[3.2.1]octan-3-yl)oxy)pyridazin-3-yl)-6-(2,4-dimethylthiazol-5-yl)-2,3-dihydro-1H-pyrrolo[3,4-c]pyridin-1-one] | 30% | 11% | 885 nM
13 | Cc1nc(C)c(-c2cnc3c(c2)C(=O)N(c2ccc(O[C@@H]4C[C@]5(C)CC[C@](C)(C4)N5)nn2)C3)s1 [Compound 194, 6-(6-(((1R,3r,5S)-1,5-dimethyl-8-azabicyclo[3.2.1]octan-3-yl)oxy)pyridazin-3-yl)-3-(2,4-dimethylthiazol-5-yl)-6,7-dihydro-5H-pyrrolo[3,4-b]pyridin-5-one] | 224% | 92% | –
14 | Cc1nn(C)cc1-c1cnc2c(c1)C(=O)N(c1ccc(S[C@H]3C[C@]4(C)CC[C@](C)(C3)N4)nn1)C2 [Compound 490, 3-(1,3-dimethyl-1H-pyrazol-4-yl)-6-(6-(((1R,3s,5S)-1,5-dimethyl-8-azabicyclo[3.2.1]octan-3-yl)thio)pyridazin-3-yl)-6,7-dihydro-5H-pyrrolo[3,4-b]pyridin-5-one] | 90% | 25% | –
15 | Cc1nn(C)cc1-c1cnc2c(c1)C(=O)N(c1ccc(O[C@H]3C[C@@]4(C)CC[C@](C)(N4)[C@H]3F)nn1)C2 [Compound 181, 3-(1,3-dimethyl-1H-pyrazol-4-yl)-6-(6-(((1S,2R,3S,5R)-2-fluoro-1,5-dimethyl-8-azabicyclo[3.2.1]octan-3-yl)oxy)pyridazin-3-yl)-6,7-dihydro-5H-pyrrolo[3,4-b]pyridin-5-one] | 92% | 103% | –
16 | Cc1nn(C)nc1-c1cc(F)c2c(c1)C(=O)N(c1ccc(OC3CC(C)(C)NC(C)(C)C3)nn1)C2 [Compound 282, 6-(2,5-dimethyl-2H-1,2,3-triazol-4-yl)-4-fluoro-2-(6-((2,2,6,6-tetramethylpiperidin-4-yl)oxy)pyridazin-3-yl)isoindolin-1-one] | 30% | 59% | –
17 | Cc1nn(C)nc1-c1cc(F)c2c(c1)C(=O)N(c1ccc(N3CC[C@@H](NC(C)(C)C)C3)nn1)C2 [Compound 648, (R)-2-(6-(3-(tert-butylamino)pyrrolidin-1-yl)pyridazin-3-yl)-6-(2,5-dimethyl-2H-1,2,3-triazol-4-yl)-4-fluoroisoindolin-1-one] | 113% | 87% | –
18 | Cc1nn(C)nc1-c1cc(F)c2c(c1)C(=O)N(c1ccc(N3CC4CCC(C3)N4)nn1)C2 [Compound 658, 2-(6-(3,8-diazabicyclo[3.2.1]octan-3-yl)pyridazin-3-yl)-6-(2,5-dimethyl-2H-1,2,3-triazol-4-yl)-4-fluoroisoindolin-1-one] | 132% | 51% | –
19 | Cc1nn(C)nc1-c1cc(F)c2c(c1)C(=O)N(c1ccc(N3CCC4(CCNC4)C3)nn1)C2 (stereo not shown) [Compound 646, 2-(6-(2,7-diazaspiro[4.4]nonan-2-yl)pyridazin-3-yl)-6-(2,5-dimethyl-2H-1,2,3-triazol-4-yl)-4-fluoroisoindolin-1-one] | 115% | 76% | –
20 | Cn1cc(-c2cc3c(cn2)CN(c2ccc(OC4CC(C)(C)NC(C)(C)C4)nn2)C3=O)c(F)n1 [Compound 91, 6-(3-fluoro-1-methyl-1H-pyrazol-4-yl)-2-(6-((2,2,6,6-tetramethylpiperidin-4-yl)oxy)pyridazin-3-yl)-2,3-dihydro-1H-pyrrolo[3,4-c]pyridin-1-one] | 85% | 74% | –
21 | Cc1nc(C)c(-c2cnc3c(c2)C(=O)N(c2ccc(N(C)C4CC(C)(C)NC(C)(C)C4)nn2)C3)s1 [Compound 167, 3-(2,4-dimethylthiazol-5-yl)-6-(6-(methyl(2,2,6,6-tetramethylpiperidin-4-yl)amino)pyridazin-3-yl)-6,7-dihydro-5H-pyrrolo[3,4-b]pyridin-5-one] | 47% | 11% | –
22 | Cc1nn(C)nc1-c1cc(Cl)c2c(c1)C(=O)N(c1ccc(O[C@H]3C[C@]4(C)CC[C@](C)(C3)N4)nn1)C2 [Compound 661, 4-chloro-6-(2,5-dimethyl-2H-1,2,3-triazol-4-yl)-2-(6-(((1R,3s,5S)-1,5-dimethyl-8-azabicyclo[3.2.1]octan-3-yl)oxy)pyridazin-3-yl)isoindolin-1-one] | 155% | 33% | –
23 | Cc1nn(C)cc1-c1cnc2c(c1)C(=O)N(c1ccc(O[C@@H]3C[C@@]4(C)CC[C@](C)(N4)[C@H]3F)nn1)C2 [Compound 215, 3-(1,3-dimethyl-1H-pyrazol-4-yl)-6-(6-(((1S,2R,3R,5R)-2-fluoro-1,5-dimethyl-8-azabicyclo[3.2.1]octan-3-yl)oxy)pyridazin-3-yl)-6,7-dihydro-5H-pyrrolo[3,4-b]pyridin-5-one] | 97% | 76% | –
24 | Cc1nn(C)cc1-c1cnc2c(c1)C(=O)N(c1ccc(N3CCN[C@@H](C(C)C)C3)nn1)C2 [Compound 602, (S)-3-(1,3-dimethyl-1H-pyrazol-4-yl)-6-(6-(3-isopropylpiperazin-1-yl)pyridazin-3-yl)-6,7-dihydro-5H-pyrrolo[3,4-b]pyridin-5-one] | 64% | 29% | –
